Several values for one entry are separate records, joined by “and”; a condition that tells them apart may be missing. Equal entries are not always repeated.

The values that follow come from patent publication US6486326B2, “iso-CBI and iso-CI analogs of CC-1065 duocarmycins” (The Scripps Research Institute, priority 1997, dated 2002).

Data set [1] in a line: Solvolysis reactivity (UV, 50% CH3OH-aqueous buffer, pH 3). It counts as physicochemical. How it is done: The solvolysis was followed spectrophotometrically by UV with the disappearance of the long-wavelength absorption band of the iso-CBI chromophore (397 nm), FIG. 3.
Solvolysis Reactivity: N-BOC-iso-CBI (31, 0.2 mg) was dissolved in CH3OH (1.5 mL) and mixed with pH 3 aqueous buffer (1.5 mL). The buffer contained 4:1:20 (v/v/v) 0.1 M citric acid, 0.2 M Na2HPO4, and H2O, respectively. The solvolysis solution was sealed and kept at 25° C. protected from light. The UV spectrum was measured at regular intervals every 1 h during the first 24 h, every 4 during the next 72 h, and every 12 h for an additional week. The decrease in the long wavelength absorption at 397 nm was monitored, FIG. 3. […] (FIG. 9).
Similarly, N—CO2Me-iso-CBI (33, 0.2 mg) was dissolved in CH3OH (1.5 mL) and mixed with pH 3 aqueous buffer (1.5 mL). The solvolysis solution was sealed and kept at 25° C. protected from light. The UV spectrum was measured at regular intervals every 1 h during the first 24 h, every 4 h during the next 72 h, and every 12 h for an additional week. The decrease in the long wavelength absorption at 395 nm was monitored, FIG. 3.
Similarly, 35 (0.2 mg) was dissolved in CH3OH (1.5 mL) and mixed with pH 3 aqueous buffer (1.5 mL). The solvolysis solution was sealed and kept at 25° C. protected from light. The UV spectrum was measured at regular intervals every 1 h during the first 12 h, every 2 h for the next 24 h, and every 4 h for an additional day. The decrease in the short wavelength absorption at 239 nm was monitored, FIG. 9.

A further data set deals with L1210. The data set is described as follows: In vitro cytotoxic activity. It counts as cell-based.
Data set [2] in a line: Stability of neat sample to ambient light and storage. It counts as physicochemical. As to conditions: 48 h. As to the method: Exclusive spirocyclization with cyclopropane formation was observed, and no competitive O-alkylation leading to 36 was detected. However, prolonged exposure of neat 31 to ambient light at 25° C. […] Thus, the handling and storage of the iso-CBI based agents were conducted minimizing their exposure to light typically at subzero temperatures.

Another data set relates to w836 DNA (146 bp). Put plainly: DNA alkylation selectivity and efficiency, thermally-induced strand cleavage of w836 DNA. The data set is classed as biochemical. How it is done:
FIG. 6 illustsrates thermally-induced strand cleavage of w836 DNA (146 bp, nucleotide nos. 5189-91): DNA-agent incubation for 24 h ((−)-iso-CBI-TMI) at 25° C., removal of unbound agent and 30 min of thermolysis (100° C.), followed by denaturing 8% PAGE and autoradiography; lane 1, control DNA; lanes 2-5, Sanger G, C, A, and T sequencing reactions; lanes 6-8 (−)-iso-CBI-TMI ([…] to 1×10^−5 M); lanes 9-10, (+)-duocarmycin SA (1×10^−5 to 1×10^−6 M); lanes 11-12, (+)-iso-CBI-TMI (1×10^−2 and 1×10^−3).
DNA Alkylation Selectivity and Efficiency: The DNA alkylation properties of the agents were examined within w794 and w836 duplex DNA for which comparative results are available for related agents. (Boger, D. L., et al., J. Am. Chem. Soc. 1994, 116, 11335; Boger, D. L., et al., J. Am. Chem. Soc. 1994, 116, 6461; and Boger, D. L., et al., J. Am. Chem. Soc. 1995, 117, 11647) The alkylation site identification and the assessment of the relative selectivity among the available sites were obtained by thermally-induced strand cleavage of the singly 5′ end-labeled duplex DNA after exposure to the agents. […]

Data set [3] relates to w794 DNA (SV40 DNA segment, 144 bp). As to conditions: from earlier studies (refs 10, 11); cited from earlier work.

In the case of `CC(C)(C)OC(=O)N1CC2CC23C(=O)c2ccccc2C=C13` (racemic) [compound 31, 2-(tert-Butyloxycarbonyl)-1,2,9,9a-tetrahydrocyclopropa[c]benzo[f]indol-8-one], the “solvolysis reactivity relative to N-BOC-CBI / corresponding CBI-based agents (more reactive, less stable)” value in data set [1] (pH 3) came out at 5 ×. In addition, the “k, solvolysis rate constant” value in data set [1] (pH 3, 25° C., CH3OH/aqueous buffer) was 6.98e-06 s⁻¹ and 6.97e-06 s⁻¹. Further, the “cytotoxic potency of unnatural enantiomer relative to natural enantiomer (slightly more potent)” value in the data set with L1210 is 1-2 ×. For the same molecule, the “stability of neat sample exposed to ambient light” value in data set [2] (ambient light, 25° C.) is recorded as “carbonylcyclopropane rearrangement to form 36”. Also, the “stability of neat sample protected from light” value in data set [2] (protected from light by foil) was “remained unchanged”.

Regarding `COc1cc2cc(C(=O)N3CC4CC45C(=O)c4ccccc4C=C35)[nH]c2c(OC)c1OC` (single isomer, unassigned; (+)) [(+)-iso-CBI-TMI, 2-[(5,6,7-Trimethoxyindol-2-yl)carbonyl]-1,2,9,9a-tetrahydrocyclopropa[c]benzo[f]indol-8-one], the “DNA alkylation sites / selectivity” value in the data set with w836 DNA (146 bp) was “selectivity identical to that of ent-(-duocarmycin SA”.

As for `COC(=O)[C@]1(C)NC2=C(C1=O)[C@@]13C[C@@H]1CN(C(=O)c1cc4cc(OC)c(OC)c(OC)c4[nH]1)C3=CC2=O` [duocarmycin A], in data set [3], the “DNA alkylation efficiency, less efficient than duocarmycin SA” value is “ca. 10 ×”.
